Test results published in patent US20240383850A1, “INDOLE DERIVATIVES AS SEROTONERGIC AGENTS USEFUL FOR THE TREATMENT OF DISORDERS RELATED THERETO” (Mindset Pharma Inc., priority 2021, published 2024).
Read-outs that look alike come from different tables or passages of the source.

Assays:
[1] = test system: C57BL/6J mice; test: Mouse head twitch response (HTR); format: in vivo; conditions: for duration of HT expression: at 10-30 mg/kg
Description: (§1) The effect of different doses of representative compounds of Formula I was evaluated on head-twitch response (HTR) and other behavioural responses indicative of serotonin syndrome as behavior-based models of psychedelic activity.
(§2) Male, C57BL/6J mice (body weight range 20-30 g) were dosed with the appropriate dose of test article, and following a 1-minute pre-treatment time, placed in individual observation chambers. Animals were visually assessed for the incidence head twitches continuously over a 1 hr period. Head twitches were defined as a rapid jerk of the head which was not elicited by an external tactile stimulus (Come and Pickering, Psychopharmacologia, 1967, 11(1): 65-78). Each head twitch was individually counted by a trained observer, and the data expressed as the mean±SEM of 6-10 mice per group. Mice were used in a single experiment only.

[2] = test system: C57BL/6J mice; test: Behavioural responses indicative of serotonin syndrome and motor activity, observed in the mouse head twitch study; format: in vivo
Description: as §1, §2

[3] = target: human 5-HT2A (h5-HT2A) receptor (Homo sapiens, UniProt P28223); test: FLIPR calcium assay, human 5-HT2A, agonist mode
Sequence of human 5-HT2A (h5-HT2A) receptor (P28223 whole entry): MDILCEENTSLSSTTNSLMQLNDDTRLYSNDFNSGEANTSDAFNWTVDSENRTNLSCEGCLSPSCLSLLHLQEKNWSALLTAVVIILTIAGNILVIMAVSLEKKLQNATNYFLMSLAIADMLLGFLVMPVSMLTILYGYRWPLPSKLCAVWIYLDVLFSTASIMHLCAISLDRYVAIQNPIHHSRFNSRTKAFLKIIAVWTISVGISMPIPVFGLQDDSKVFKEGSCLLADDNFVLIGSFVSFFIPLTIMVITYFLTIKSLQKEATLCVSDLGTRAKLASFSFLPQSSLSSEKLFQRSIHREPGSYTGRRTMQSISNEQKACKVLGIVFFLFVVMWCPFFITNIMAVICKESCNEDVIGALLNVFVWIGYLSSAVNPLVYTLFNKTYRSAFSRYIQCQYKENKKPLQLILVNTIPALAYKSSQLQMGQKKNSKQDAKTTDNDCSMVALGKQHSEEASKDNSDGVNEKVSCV

[4] = target: T1, human 5-HT2A receptor (Homo sapiens, UniProt P28223); test: biochemical
T1 sequence (P28223 whole entry): as above

[5] = target: T1, human 5-HT2A receptor; conditions: read-out: h5-HT2A IC50; competition with [3H]-ketanserin, cell membranes

SMILES | EC50 [3] [µM] | IC50 [4] [µM] | also measured
[2H]C([2H])(c1c[nH]c2ccc(OC)cc12)[C@H]1CCCN1C(=O)CCCCCCC/C=C\C/C=C\CCCCC [(R)—I-51] | – | – | ED50 ([1]; Mus musculus, male C57BL/6J mice, SC, head twitches counted over 1 hr): 2.8 mg/kg; head twitch response expression ([1]; mice, 1-60 mg/kg SC, compared to 5-MeO DMT): elicited a robust head twitch response expression; duration of HT expression ([1]; mice, SC): 0 to 30 min; motor activity ([2]; 1-30 mg/kg, not formally measured): did not reduce motor activity; signs of 5-HT syndrome (whole body twitches, FPT, Straub tail) ([2]; up to 60 mg/kg SC): did not induce signs of 5-HT syndrome
COc1ccc2[nH]cc(CCN(C)C)c2c1 [Compound 5-MeO-DMT, 5-MeO-DMT, reference compound] | – | – | ED50 head twitch response ([1]; male C57BL/6J mice, SC, head twitches counted over 1 hr): 8 mg/kg; duration of HT expression ([1]; mice, SC): 0 to 20 min
CCCCC/C=C\C/C=C\CCCCCCCC(=O)N(C)CCc1c[nH]c2ccccc12 [Compound I-1, (9Z,12Z)—N-(2-(1H-Indol-3-yl)ethyl)-N-methyloctadeca-9,12-dienamide] | > 30 | 10 to 30 | –
CCCCC/C=C\C/C=C\CCCCCCCC(=O)N(C)CCc1c[nH]c2ccc(OC)cc12 [Compound I-21, (9Z,12Z)—N-(2-(5-Methoxy-1H-indol-3-yl)ethyl)-N-methyloctadeca-9,12-dienamide] | > 30 | 10 to 30 | –
CCCCC/C=C\C/C=C\CCCCCCCC(=O)N1CCC[C@@H]1Cc1c[nH]c2ccccc12 [Compound I-46, (9Z,12Z)-1-((R)-2-((1H-Indol-3-yl)methyl)pyrrolidin-1-yl)octadeca-9,12-dien-1-one] | > 30 | > 30 | –
CCCCC/C=C\C/C=C\CCCCCCCC(=O)N1CCC[C@@H]1Cc1c[nH]c2ccc(OC)cc12 [Compound I-55, (9Z,12Z)-1-((R)-2-((5-Methoxy-1H-indol-3-yl)methyl)pyrrolidin-1-yl)octadeca-9,12-dien-1-one] | > 30 | > 30 | –
CCCCC/C=C\C/C=C\CCCCCCCC(=O)N1CCC(c2c[nH]c3ccc(OC)cc23)C1 (stereo not shown) [Compound I-81, (9Z,12Z)-1-(3-(5-Methoxy-1H-indol-3-yl)pyrrolidin-1-yl)octadeca-9,12-dien-1-one] | > 30 | > 30 | –
CCCCC/C=C\C/C=C\CCCCCCCC(=O)N1CCC(c2c[nH]c3ccccc23)C1 (stereo not shown) [Compound I-84, (9Z,12Z)-1-(3-(1H-Indol-3-yl)pyrrolidin-1-yl)octadeca-9,12-dien-1-one] | > 30 | 10 to 30 | –
CCCCC/C=C\C/C=C\CCCCCCCC(=O)N1CCC(c2c[nH]c3ccccc23)CC1 [Compound I-87, (9Z,12Z)-1-(4-(1H-Indol-3-yl)piperidin-1-yl)octadeca-9,12-dien-1-one] | > 30 | 10 to 30 | –
CCCCC/C=C\C/C=C\CCCCCCCC(=O)N1CCC(c2c[nH]c3ccc(OC)cc23)CC1 [Compound I-88, (9Z,12Z)-1-(4-(5-Methoxy-1H-indol-3-yl)piperidin-1-yl)octadeca-9,12-dien-1-one] | > 30 | 10 to 30 | –
CN(C)CCc1c[nH]c2ccccc12 [DMT] | – | – | EC50 ([3]; read-out: h5-HT2A EC50, FLIPR calcium assay, agonist mode): < 10 µM; IC50 [5]: < 10 µM
